The values below come from US20230028441A1, “NOVEL HETEROARYL-TRIAZOLE COMPOUNDS AS PESTICIDES” (Bayer Aktiengesellschaft, priority 2019, published 2023).

Holding throughout (type): in vivo
The test system of assay [1] is larvae of the southern green stink bug (Nezara viridula). Kind of assay: Nezara viridula spray test. As to conditions: in Hordeum vulgare, 96 h. A digest of the protocol: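 Barley plants infested with Nezara viridula larvae were sprayed with compound in acetone/dimethylformamide, diluted in water containing 1000 ppm alkylarylpolyglycol ether emulsifier. Mortality (%) was scored after 4 days; 100% means all stink bugs killed.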

Assay [2] relates to Musca domestica strain WHO-N. Nature of the assay: Musca domestica test (MUSCDO surface treatment & contact assay). As to conditions: 24 hours after contact, read-out: efficacy (mortality); for mortality at 4 mg/m2: surface concentration 4 mg/m^2, 30 minutes exposure; for mortality at 20 mg/m2: surface concentration 20 mg/m^2, 30 minutes exposure. As to the method: (§1) Solvent: Aceton+2000 ppm rapeseed oil methyl ester (RME)
In order to produce a sufficient, active ingredient containing solution it is necessary to solve the test compound in the solvent-mix (acetone at 2 mg/ml/RME 2000 ppm). This solution is pipetted onto a glazed tile and after evaporation of the acetone, adult flies of the species Musca domestica strain WHO-N are placed onto the dried surface. The exposure time is 30 minutes. Mortality in percent (%) is determined 24 hours after contact of the insects to the treated surface. 100% mortality means that all tested insects are dead, whereas 0% means that no insect died.

The test system of assay [3] is adult brown dog ticks (Rhipicephalus sanguineus). Nature of the assay: Rhipicephalus sanguineus in-vitro contact test with adult brown dog ticks. As to conditions: after 48 hours, read-out: efficacy (ticks dead or moribund); for pest or weed control at 1 µg/cm2, 100 g/ha: 1 μg/cm^2 (=100 g/ha); for pest or weed control at 5 µg/cm2, 500 g/ha: 5 μg/cm^2 (=500 g/ha). In outline: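 Compound in acetone coated onto glass tube inner walls at 900 ppm, giving 5 μg/cm^2. Adult ticks (5-10 per tube) held at room temperature for 48 h, then placed on a 45-50° C. heating plate for up to 5 min. Ticks unable to climb away counted dead or moribund; efficacy given as % dead/moribund.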

For assay [4], the system named is cattle tick larvae (Rhipicephalus microplus), strain Parkhurst, resistant against synthetic pyrethroids. Nature of the assay: Rhipicephalus (Boophilus) microplus in-vitro contact test, larval cattle tick. As to conditions: 5 μg/cm^2 (=500 g/ha), after 48 hours, read-out: efficacy (larvae dead or moribund). A digest of the protocol: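 Acetone solutions of compound were coated on glass tube walls (900 ppm giving 5 μg/cm^2) and dried. 20–50 pyrethroid-resistant Parkhurst larvae were held per tube at 27° C and 85% relative humidity; after 48 h negative geotaxis scored efficacy as percent larvae dead or moribund.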

The subject of assay [5] is adult cat fleas (Ctenocephalides felis). Nature of the assay: Ctenocephalides felis in-vitro contact test, adult cat flea. As to conditions: 5 μg/cm^2 (=500 g/ha), after 48 hours, read-out: efficacy (fleas dead or moribund). A digest of the protocol:
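Acetone solutions were coated on glass tube walls, 900 ppm giving 5 μg/cm^2. After drying, 5-10 adult fleas per tube were held 48 h at room temperature. Fleas unable to climb away from a 45-50 °C heating plate within 5 min were scored dead or moribund, as % efficacy.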

Assay [6] deals with Aedes aegypti strain MONHEIM. Nature of the assay: Aedes aegypti test (AEDSAE surface treatment & contact assay). As to conditions: 24 hours after contact, read-out: efficacy (mortality); for mortality at 4 mg/m2: surface concentration 4 mg/m^2, 30 minutes exposure; for mortality at 20 mg/m2: surface concentration 20 mg/m^2, 30 minutes exposure. As to the method:
as §1
In order to produce a sufficient, active ingredient containing solution it is necessary to solve the test compound in the solvent-mix (acetone at 2 mg/ml/RME 2000 ppm). This solution is pipetted onto a glazed tile and after evaporation of the acetone, adult mosquitoes of the species Aedes aegypti strain MONHEIM are placed onto the dried surface. The exposure time is 30 minutes. Mortality in percent (%) is determined 24 hours after contact of the insects to the treated surface. 100% mortality means that all tested insects are dead, whereas 0% means that no insect died.

The test system of assay [7] is green peach aphid (Myzus persicae). Nature of the assay: Myzus persicae oral test. As to conditions: 120 h. In outline: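 Acetone stock (1 pbw compound/100 pbw solvent) diluted in water; mixed with sugar-supplemented IPL41 medium; parafilm-sealed; mixed aphid population sucks through film; mortality % read at 5 d.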
Assay [8] concerns brown planthopper (Nilaparvata lugens). Kind of assay: Nilaparvata lugens spray test. Conditions: in Oryza sativa, 96 h. In outline: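 Rice plants (Oryza sativa) sprayed with compound in acetone/DMF diluted in water containing 1000 ppm alkylarylpolyglycol ether emulsifier, then infested with planthoppers. Mortality % scored after 4 days (100% = all killed, 0% = none killed).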

The test system of assay [9] is adult unfed cat fleas (Ctenocephalides felis). Kind of assay: Ctenocephalides felis oral test. As to conditions: 48 h, 100 ppm in cattle blood, after 2 days. A digest of the protocol: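 About 20 adult unfed Ctenocephalides felis fed through parafilm on cattle blood dosed with compound (DMSO stock diluted in blood), blood chamber at 37°C, fleas at room temperature. Mortality (%) scored after 2 days; 100% means all fleas killed.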

As a reminder, the mortality is the share of the test organisms that died. `CNc1nc(C(C)NC(=O)c2cc(C(F)(F)F)cc(C(F)(F)F)c2)n(-c2ncccn2)n1` (stereo not shown) [I-088]: the mortality at 100 g/ha in assay [1] and in assay [8] was 100% throughout. Besides, the mortality at 4 mg/m2 in [2] and in assay [6] was 90 to 100% throughout. The mortality at 20 mg/m2 in assay [2] and in assay [6] was 90 to 100% each time. In [3], the pest or weed control at 1 µg/cm2, 100 g/ha came to 100%. For the same compound, in assay [3], the pest or weed control at 5 µg/cm2, 500 g/ha was 100%. Also, the pest or weed control at 5 µg/cm2 in assay [4] and in assay [5] was 100% each time. In assay [7], this compound displayed a mortality at 4 ppm of 100%. Further, the mortality at 100 ppm in [9] turned out to be 100%.

Consider `CC(NC(=O)c1cc(Cl)cc(C(F)(F)F)c1)c1nc(N)nn1-c1ccc(Cl)cn1` (racemic) [I-006, N-[1-[5-amino-2-(5-chloro-2-pyridyl)-1,2,4-triazol-3-yl]ethyl]-3-chloro-5-(trifluoromethyl)benzamide], for which, in [1], the mortality at 100 g/ha was 100% and the mortality at 500 g/ha turned out to be 100%. For the same compound, in assay [2], the mortality at 4 mg/m2 was in the range of 90 to 100% and the mortality at 20 mg/m2 is 90 to 100%. In assay [3], the pest or weed control at 1 µg/cm2, 100 g/ha worked out at 80% and the pest or weed control at 5 µg/cm2, 500 g/ha came out at 100%. Moreover, the pest or weed control at 5 µg/cm2 in [4] turned out to be 100%. In addition, the pest or weed control at 5 µg/cm2 in [5] was determined as 100%. In addition, in assay [6], the mortality at 4 mg/m2 fell in the range of 90 to 100% and the mortality at 20 mg/m2 fell in the range of 90 to 100%. Further, the mortality at 4 ppm in [7] was found to be 100%. Also, in assay [8], the mortality at 500 g/ha came out at 90%. Also, the mortality at 100 ppm in [9] turned out to be 100%.
